Assay results published in patent US20010024657A1, “Pharmaceutical oral patch for controlled release of pharmaceutical agents in the oral cavity” (priority 1997, published 2001).
Entries after “also recorded” stand apart in the source; their conditions may differ.

What was measured:
[1] = In vivo release of clotrimazole from patches on the upper teeth, measured in saliva of volunteers; parameters: species or system human; settings: total dose of 10 mg clotrimazole from patches
Method: Each volunteer attached two pharmaceutical oral patches of 5 mg clotrimazole to the buccal side of the upper teeth. No food or drink was allowed during the tests. Saliva samples were expectorated at given time intervals and tested for clotrimazole by HPLC. The patch was affixed to the tooth by using a drop of a solution of Eudragit S™ in ethanol.
The in vivo release from the patches made from three formulations of differing molar ratios of NaOH were tested in vivo. Formulation 193-5 has a low level of NaOH (percent molar ratio of 11.5%) and the patch made therefrom is expected to release drug even more slowly than the patch made from formulation 193-34.

[2] = cited from earlier work; for solubility in buffer (in words): neutral to slightly basic, pH 7-8, high buffering capacity

For Clc1ccccc1C(c1ccccc1)(c1ccccc1)n1ccnc1 [clotrimazole, Clotrimazole], the “time of clinically significant levels of clotrimazole in saliva” value [1] is listed as “at least 6 hours” and the “solubility in water (in words)” value [2] is listed as “poorly water soluble”.
In the case of CC(C(=O)O)c1ccc(-c2ccccc2)c(F)c1 (stereo not drawn) [flurbiprofen], the “solubility in buffer (in words)” value [2] is given as “soluble in buffer” and the “solubility in water (in words)” value [2] is given as “poorly soluble in water; also recorded: only slightly soluble”.
For O=C([O-])c1ccccc1O.[Na+] [sodium salicylate], the “solubility in buffer (in words)” value [2] is given as “very soluble” and the “solubility in water (in words)” value [2] is given as “very soluble”.
